Results as given in patent publication US9718790B2, “Triazine derivative and pharmaceutical composition having an analgesic activity comprising the same” (SHIONOGI & CO., LTD., priority 2010, dated 2017).
pIC50: −log10 of the molar value.

What was measured:
human P2X3 receptor = human P2X3 receptor (Homo sapiens (Human), UniProt P56373); assay: Evaluation of human P2X3 receptor inhibitory activity (Fluo-3 calcium fluorescence, FDSS 3000, ATP stimulation); type: cell-based;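 also: stimulus was 50 nM ATP with fluorescence followed for 3 min, and the response per well was peak post-ATP fluorescence divided by the reading at measurement start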
Sequence of human P2X3 receptor (P56373 whole entry): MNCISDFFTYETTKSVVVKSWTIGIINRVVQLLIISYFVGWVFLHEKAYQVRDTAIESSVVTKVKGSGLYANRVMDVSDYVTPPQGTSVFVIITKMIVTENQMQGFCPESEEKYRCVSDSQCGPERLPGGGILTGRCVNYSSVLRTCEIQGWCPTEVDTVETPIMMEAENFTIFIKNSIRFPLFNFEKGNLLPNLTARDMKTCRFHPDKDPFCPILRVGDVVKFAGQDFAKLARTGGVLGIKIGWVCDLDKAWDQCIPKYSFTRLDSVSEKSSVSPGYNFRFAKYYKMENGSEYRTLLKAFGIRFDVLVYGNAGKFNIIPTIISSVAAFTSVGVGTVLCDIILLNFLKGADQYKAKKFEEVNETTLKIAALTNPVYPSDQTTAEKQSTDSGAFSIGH

[1] = system: partial sciatic nerve ligation model in rats; assay: Analgesic effect in a Seltzer model, Evaluation (1): mechanical allodynia, von Frey filaments; type: in vivo; conditions: rat, oral single administration, at 3 hours, read-out: analgesic effect, percent reversal of mechanical allodynia
Excerpt: Rats were anaesthetized using isoflurane/O2 inhalation anaesthesia. After induction of anesthesia, the left thigh was shaved. An incision was made in the skin just below the hip bone. The muscle was bluntly dissected to expose the sciatic nerve. One third (⅓) to one half (½) of the sciatic nerve thickness was tightly ligated and the wound was closed. The right thigh is used as a sham-operated control. The right thigh undergoes an identical procedure with the left hind limb, however, the sciatic nerve is not manipulated or ligated.
Two weeks after nerve ligation, the effect on mechanical allodynia was assessed using a series of von Frey filaments. For habituation, the rats were placed into a plastic cage on a wire mesh bottom. The mechanical sensitivity (mechanical threshold) of the hind paws was estimated with a series of von Frey filaments (0.4-20 g). The measurement of mechanical sensitivity of the right and left hind paws was performed to obtain predose mechanical sensitivity. The rats showing thee threshold change from 0.6 to 2 g (in nerve ligated side) and 8 to 15 g (in sham operated side) were used in the experiments. On the day belone the experiment, the rats were evaluated with a series of von Frey filaments to familiarize them with the test procedure. The adopted animal was administrated with the test compounds. The test compounds were homogenized with mortar and pestle and suspended or diluted in 0.5% Methyl Cellulose to prepare 0.1-2.0 mg/mL/kg suspension and orally administered to rat using a syringe attached with a sonde. Post-dose mechanical sensitivities of the right and left hind paws were measured at approximately 1 to 5 hours after drug administration. Percent reversal of mechanical allodynia for each rat was calculated using the following formula. The analgesic effects of the compounds were compared.

[2] = Bioavailability (BA) test; type: in vivo; conditions: plasma; mice or SD rats, oral vs intravenous AUC
Procedure: (1) Animals: Mice or SD rats were used
(2) Breeding conditions: Mice or SD rats were allowed to freely take solid food and sterilized tap water.
(3) Dose and grouping: orally or intravenously administered at a predetermined dose; grouping was as follows (Dose depends one the compound) • Oral administration: 0.3 to 30 mg/kg (n=2 to 3) • Intravenous administration: 0.5 to 10 mg/kg (n=2 to 3)
(4) Preparation of dosing solution: for oral administration, in a solution or a suspension state: for intravenous administration, in a solubilized state
(5) Administration method: in oral administration, forcedly administer into ventriculus with oral probe; in intravenous administration, administer from caudal vein with a needle-equipped syringe
(6) Evaluation items: blood was collected over time, and the plasma concentration of drug was measured by LC/MS/MS
(7) Statistical analysis: regarding the transition of the plasma concentration or the present compound, the area under the plasma concentration-time curve (AUC) was calculated by non-linear least squares program WinNonlin (Registered trade name), and the bioavailability (BA) was calculated the AUCs of the oral administration group and intravenous administration group

CYP2D6 = CYP2D6 (Homo sapiens (Human), UniProt P10635); assay: CYP inhibition test, pooled human hepatic microsome, dextromethorphan O-demethylation; type: in vitro ADME; conditions: substrate dextromethorphan
Sequence of CYP2D6 (P10635 whole entry): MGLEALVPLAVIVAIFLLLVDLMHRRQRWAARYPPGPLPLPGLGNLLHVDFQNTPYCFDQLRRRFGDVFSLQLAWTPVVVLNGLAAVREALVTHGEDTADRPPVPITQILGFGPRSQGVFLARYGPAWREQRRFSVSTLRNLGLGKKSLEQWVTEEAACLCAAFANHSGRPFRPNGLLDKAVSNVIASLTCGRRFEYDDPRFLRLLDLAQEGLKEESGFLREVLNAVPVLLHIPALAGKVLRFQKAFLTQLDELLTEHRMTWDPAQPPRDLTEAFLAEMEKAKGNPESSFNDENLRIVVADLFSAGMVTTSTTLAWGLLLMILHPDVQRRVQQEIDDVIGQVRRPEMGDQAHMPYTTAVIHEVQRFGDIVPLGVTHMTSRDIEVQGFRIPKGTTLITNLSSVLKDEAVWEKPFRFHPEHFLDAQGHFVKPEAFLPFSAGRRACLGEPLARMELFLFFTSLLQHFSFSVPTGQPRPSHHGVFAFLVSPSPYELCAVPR
Procedure: (§1) Using commercially available pooled human hepatic microsome, and employlng, as markers, 7-ethoxyresorufin O-deethylation (CYP1A2), tolbutamide methyl-hydroxylation (CYP2C9), mephenyloin 4′-hydroxylation (CYP2C19), dextromethorphan O-demethylation (CYP2D6), and terfenedine hydroxylation as typical substrate metabolism reactions of human main five CYP enzyme forms (CYP1A2, 2C9, 2C19, 2D6, 3A4), an inhibitory degree of each metabolite production amount by a test compound was assessed.
(§2) The reaction conditions were as follows: substrate, 0.5 μmol/L ethoxyresorufin (CYP1A2), 100 μmol/L tolbutamide (CYP2C9), 50 μmol/L S-mephenitoin (CYP2C19), 5 μmol/L dextromethorphan (CYP2D6), 1 μmol/L terfenedine (CYP3A4) reaction time, 15 minutes; reaction temperature, 37° C; enzyme, pooled human hepatic microsome 0.2 mg protein/mL; test drug concentration, 1.0, 5.0, 10, 20 μmol/L (four points).
(§3) Each five kinds of substrates, human hepatic microsome, or a test drug in 50 mmol/L Hepes buffer as a reaction solution was added to a 96-well plate at the composition as described above, NADPH, as a cofactor was added to initiate metabolism reactions as markers and, after the incubation at 37° C. for 15 minutes, a methanol/acetonitrile=1/1 (v/v) solution was added to stop the reaction. After the centrifugation at 3000 rpm for 15 minutes, resorufin (CYP1A2 metabolite) in the supernatant was quantified by a fluorescent multilabel counter and tributamide hydroxide (CYP2CP metabolite), mephenyloin 4′ hydroxide (CYP2C19 metabolite), […] (CYP2D6 metabolite), and terfenadine alcohol (CYP3A4 metabolite) were quantified by LC/MS/MS.

CYP2C19 = CYP2C19 (Homo sapiens (Human), UniProt P33261); assay: CYP inhibition test, pooled human hepatic microsome, mephenytoin 4'-hydroxylation; type: in vitro ADME; conditions: substrate S-mephenitoin
Sequence of CYP2C19 (P33261 whole entry): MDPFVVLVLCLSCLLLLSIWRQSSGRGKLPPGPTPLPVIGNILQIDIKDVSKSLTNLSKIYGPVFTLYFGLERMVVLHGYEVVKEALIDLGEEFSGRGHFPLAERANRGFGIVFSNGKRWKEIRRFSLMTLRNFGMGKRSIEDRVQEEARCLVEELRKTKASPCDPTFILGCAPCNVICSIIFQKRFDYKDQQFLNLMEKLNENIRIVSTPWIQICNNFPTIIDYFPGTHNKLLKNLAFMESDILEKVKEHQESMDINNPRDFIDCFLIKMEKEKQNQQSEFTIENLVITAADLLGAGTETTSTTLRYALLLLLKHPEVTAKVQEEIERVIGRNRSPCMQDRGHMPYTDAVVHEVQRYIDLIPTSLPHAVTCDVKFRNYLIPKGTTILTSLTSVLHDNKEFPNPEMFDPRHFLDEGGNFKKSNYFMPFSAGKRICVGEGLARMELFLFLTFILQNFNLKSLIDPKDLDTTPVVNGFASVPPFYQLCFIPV
Procedure: as §1, §2, §3

CYP2C9 = CYP2C9 (Homo sapiens (Human), UniProt P11712); assay: CYP inhibition test, pooled human hepatic microsome, tolbutamide methyl-hydroxylation; type: in vitro ADME; conditions: substrate tolbutamide
Sequence of CYP2C9 (P11712 whole entry): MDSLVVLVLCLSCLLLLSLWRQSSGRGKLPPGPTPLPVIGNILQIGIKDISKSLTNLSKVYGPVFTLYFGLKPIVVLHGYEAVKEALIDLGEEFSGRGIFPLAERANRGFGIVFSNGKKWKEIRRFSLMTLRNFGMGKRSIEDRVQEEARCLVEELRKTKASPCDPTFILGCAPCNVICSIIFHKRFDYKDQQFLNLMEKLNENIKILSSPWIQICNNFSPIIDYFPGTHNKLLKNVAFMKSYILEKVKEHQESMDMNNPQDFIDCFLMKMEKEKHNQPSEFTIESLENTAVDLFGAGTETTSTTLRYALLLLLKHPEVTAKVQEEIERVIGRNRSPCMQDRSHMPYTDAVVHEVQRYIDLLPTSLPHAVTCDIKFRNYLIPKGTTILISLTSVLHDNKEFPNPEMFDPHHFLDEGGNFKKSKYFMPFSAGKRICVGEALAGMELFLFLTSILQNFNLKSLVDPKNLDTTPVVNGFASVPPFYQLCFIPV
Procedure: as §1, §2, §3

CYP3A4 = CYP3A4 (Homo sapiens (Human), UniProt P08684); assay: CYP inhibition test, pooled human hepatic microsome, terfenedine hydroxylation; type: in vitro ADME; conditions: substrate terfenedine
Sequence of CYP3A4 (P08684 whole entry): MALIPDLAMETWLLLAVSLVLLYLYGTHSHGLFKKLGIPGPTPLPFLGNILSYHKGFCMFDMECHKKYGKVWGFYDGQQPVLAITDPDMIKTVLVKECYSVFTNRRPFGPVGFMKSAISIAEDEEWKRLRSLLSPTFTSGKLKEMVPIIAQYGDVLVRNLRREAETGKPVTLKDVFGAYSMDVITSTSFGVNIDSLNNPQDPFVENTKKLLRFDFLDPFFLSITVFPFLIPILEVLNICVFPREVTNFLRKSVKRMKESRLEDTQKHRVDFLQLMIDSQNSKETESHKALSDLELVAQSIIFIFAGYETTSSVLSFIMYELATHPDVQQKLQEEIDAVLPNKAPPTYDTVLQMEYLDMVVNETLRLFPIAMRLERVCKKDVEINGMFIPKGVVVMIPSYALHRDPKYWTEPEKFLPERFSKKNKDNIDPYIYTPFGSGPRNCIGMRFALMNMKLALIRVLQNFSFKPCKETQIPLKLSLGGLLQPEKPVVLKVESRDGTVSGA
Procedure: as §1, §2, §3

CYP1A2 = CYP1A2 (Homo sapiens (Human), UniProt P05177); assay: CYP inhibition test, pooled human hepatic microsome, 7-ethoxyresorufin O-deethylation; type: in vitro ADME; conditions: substrate ethoxyresorufin
Sequence of CYP1A2 (P05177 whole entry): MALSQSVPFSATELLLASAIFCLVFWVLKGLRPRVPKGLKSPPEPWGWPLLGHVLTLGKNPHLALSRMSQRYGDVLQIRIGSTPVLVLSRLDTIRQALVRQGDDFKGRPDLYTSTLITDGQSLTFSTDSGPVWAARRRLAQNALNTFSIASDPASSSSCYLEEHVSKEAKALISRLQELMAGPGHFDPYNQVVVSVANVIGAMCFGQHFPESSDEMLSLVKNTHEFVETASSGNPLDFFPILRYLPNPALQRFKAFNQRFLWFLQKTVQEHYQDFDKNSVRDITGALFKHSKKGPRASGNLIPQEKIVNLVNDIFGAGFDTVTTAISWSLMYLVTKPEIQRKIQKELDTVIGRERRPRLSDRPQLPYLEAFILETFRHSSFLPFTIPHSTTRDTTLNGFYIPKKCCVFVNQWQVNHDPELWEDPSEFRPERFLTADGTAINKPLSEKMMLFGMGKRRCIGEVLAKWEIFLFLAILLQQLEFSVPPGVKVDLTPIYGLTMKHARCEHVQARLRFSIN
Procedure: as §1, §2, §3

serum = assay: Protein binding test (equilibrium dialysis, serum); type: in vitro ADME; conditions: 37° C., 24 hours, 2 μg/mL
Procedure: The unbound fraction the present compound in serum was measured using serum of various species.
The reactive conditions are as follows: Evaluation method, Equilibrium dialysis; Reaction time, 24 hours; Reaction temperature, 37° C.; Concentration of the present compound, 2 μg/mL.
The test solution was added to each serum and the mixture was agitated to prepare the serum samples at the concentration mentioned above. Each serum sample was added into one side or the cell and phosphate buffered saline (PBS) was added into the other side to perform equilibrium dialysis at 37° C. for 24 hours. Then, the concentration of the compounds in the samples that were obtained from both sides was measured by LC/MS/MS.
(Result) The ratio of PBS concentration to serum concentration is expressed as unbound fraction.

[3] = C6BU-1 cells stably expressing human P2X3 receptor
[4] = human P2X3 receptor, Test Example 1
[5] = C6BU-1 cells stably expressing human P2X3 receptor, Fluo-3 fluorescence, FDSS 3000

SMILES | inhibition in vivo at 3 mg/kg [1] [%] | pIC50 (human P2X3 receptor; [4]) | pIC50 (human P2X3 receptor; [5]) | also measured
CCn1c(=O)[nH]/c(=N\c2ccc(Oc3ncc(C(=O)O)s3)cc2)n(Cc2ccc(Cl)cc2)c1=O [Compound I-2153] | > 30 | – | – | pIC50 (human P2X3 receptor; [3]): 8.22
Cc1cc(/N=c2\[nH]c(=O)n([C@@H](C)[C@@H](C)C(=O)O)c(=O)n2Cc2ccc(Cl)cc2)ccc1OC(C)C [Compound I-0826] | > 30 | 7.72 | – | –
Cc1ccc(Cn2c(=O)n(C[C@H](C)C(=O)O)c(=O)[nH]/c2=N\c2ccc(CC(C)C)c(Cl)c2)cc1 [Compound I-1373] | > 30 | – | – | pIC50 (human P2X3 receptor; [3]): 8.40
Cn1c(=O)[nH]/c(=N\c2ccc(Oc3cccc(C(=O)O)n3)cc2)n(Cc2ccc(Cl)cc2)c1=O [Compound I-2272] | > 30 | 8.10 | – | –
Cc1cc(Oc2ccc(/N=c3\[nH]c(=O)n(C[C@H](O)CO)c(=O)n3Cc3ccc(Cl)cc3)cc2)no1 [Compound I-1757] | > 30 | – | 7.92 | –
COC(=O)[C@@H](C)Cn1c(=O)[nH]/c(=N\c2cccc(C3C=CCCC3)c2)n(Cc2ccc(C)cc2)c1=O (stereo partly shown) [Compound I-1079] | – | – | – | bioavailability [2]: > 99.9%; pIC50 (CYP2D6): < 4.70; pIC50 (CYP2C19): < 4.70; pIC50 (CYP2C9): < 4.70; pIC50 (CYP3A4): < 4.70; pIC50 (CYP1A2): < 4.70
O=c1[nH]/c(=N\c2ccc(Oc3ccon3)cc2)n(Cc2ccc(Cl)cc2)c(=O)n1C[C@H](O)CO [Compound I-2293] | > 30 | 8.22 | – | –
Cc1ccc(Cn2c(=O)n([C@@H](C)[C@@H](C)C(=O)O)c(=O)[nH]/c2=N\c2ccc(OC(C)C)c(Cl)c2)cc1 [Compound I-0931] | > 30 | – | 7.92 | –
CCn1c(=O)[nH]/c(=N\c2ccc(Oc3ccc(C(N)=O)nn3)cc2)n(Cc2ccc(Cl)cc2)c1=O [Compound I-2283] | > 30 | > 8.40 | – | –
CC(CO)(CO)Cn1c(=O)[nH]/c(=N\c2ccc(Oc3ccon3)cc2)n(Cc2ccc(Cl)cc2)c1=O [Compound I-2369] | > 30 | 8.52 | – | –
O=c1[nH]/c(=N\c2ccc(OCC3CC3)cc2)n(Cc2ccc(Cl)cc2)c(=O)n1CC(CO)CO [Compound I-1849] | > 30 | – | 8.15 | –
O=c1[nH]/c(=N\c2ccc(Oc3ccon3)cc2)n(Cc2ccc(Cl)cc2)c(=O)n1CCO [Compound I-2292] | > 30 | 7.92 | – | –
Cn1c(=O)[nH]/c(=N\c2ccc(Oc3cnc(C#N)cn3)cc2)n(Cc2ccc(Cl)cc2)c1=O [Compound I-2428] | > 30 | 8.30 | – | –
CNC(=O)c1cc(Oc2ccc(/N=c3\[nH]c(=O)n(C)c(=O)n3Cc3ccc(Cl)cc3)cc2)ccn1 [Compound I-2011] | – | – | – | pIC50 (human P2X3 receptor; [3]): 8.00; unbound fraction (ratio of PBS concentration to serum concentration) (serum): 0.5%
Cc1ccc(Cn2c(=O)n(C[C@H](C)C(=O)O)c(=O)[nH]/c2=N\c2ccc(C(=O)C3CC3)cc2)cc1 [Compound I-1305] | – | – | – | pIC50 (human P2X3 receptor; [3]): 6.64
CCn1c(=O)[nH]/c(=N\c2ccc(Oc3ccnc(C(=O)O)c3)cc2)n(CC2CCC(C)(C)CC2)c1=O [Compound I-2208] | – | – | – | pIC50 (human P2X3 receptor; [3]): 7.92
Cc1ccc(Cn2c(=O)n(C[C@H](C)C(=O)O)c(=O)[nH]/c2=N\c2ccc(CC(C)C)c(C)c2)cc1 [Compound I-1044] | – | – | 7.72 | –
CCc1oc2ccc(/N=c3\[nH]c(=O)n(CC4(C)COC(C)(C)OC4)c(=O)n3Cc3ccc(Cl)cc3)cc2c1C [Compound I-1636] | – | – | 8.05 | –
Cc1ccc(Cn2c(=O)n(C[C@H](C)C(=O)O)c(=O)[nH]/c2=N\c2ccc(CN(C)C)c(Cl)c2)cc1 [Compound I-1177] | – | – | 6.56 | –
COC(=O)CN1CCC(n2c(=O)[nH]/c(=N\c3ccc(OC(C)C)c(C)c3)n(Cc3ccc(Cl)cc3)c2=O)CC1 [Compound I-1639] | – | – | 7.85 | –
COc1cc(/N=c2\[nH]c(=O)n(C[C@H](O)CO)c(=O)n2Cc2ccc(Cl)cc2)ccc1OC(C)C [Compound I-2004] | – | – | – | pIC50 (human P2X3 receptor; [3]): 7.89
Cc1nnc(Oc2ccc(/N=c3\[nH]c(=O)n(C[C@H](O)CO)c(=O)n3Cc3ccc(Cl)cc3)cc2)s1 [Compound I-2511] | – | 6.63 | – | –
CCOC(=O)CC(C)(C)n1c(=O)[nH]/c(=N\c2ccc(OC(C)C)c(C)c2)n(Cc2ccc(Cl)cc2)c1=O [Compound I-0805] | – | – | – | pIC50 (human P2X3 receptor; [3]): 7.54
CCc1oc2ccc(/N=c3\[nH]c(=O)n(CC(=O)OC)c(=O)n3Cc3ccc(Cl)cc3)cc2c1C [Compound I-1564] | – | – | 7.89 | –
CCOc1ccc(/N=c2\[nH]c(=O)n(CC3COC(C)(C)OC3)c(=O)n2Cc2ccc(Cl)cc2)cc1Cl [Compound I-1886] | – | – | 8.52 | –
